Where a SMILES comes first, the peptide text is derived from it.
Legend:
PC-3 cells = experiment: Microscopic evaluation of cellular uptake (live-cell imaging); type: cell-based, Human; conditions: TAMRA-labeled bioportide 5 µM, 1 h, 37 °C, 5% CO2, phenol red-free RPMI-1640, live-cell fluorescence imaging (EVOS M5000), 3 independent experiments
Description: (§1) To evaluate the intracellular accumulation of bioportides, PC-3 and LnCaP cells were seeded in a 24-well plate (6.00 × 10^4 and 7.50 × 10^4 cells/well, respectively) and incubated for 24 h at 37 °C under a 5% CO2 atmosphere. After washing cells with phosphate buffered saline (PBS-1×), the growth medium was exchanged for phenol red-free RPMI-1640 medium containing 5µM of TAMRA-labeled CAVPENET or CAVPENET control and incubated for 1 h. After the incubation time, the cells were washed in phenol red-free RPMI-1640 medium and observed by EVOS^TM M5000 Imaging, and photos were obtained. Live-cell imaging was used to avoid fixation artifacts. Untreated cells were included as background reading.
(§2) Figure 1 Translocation of CAVPENET control and CAVPENET bioportides into (A) PC-3 and (B) LnCaP cells. PCa cells (PC-3 and LnCaP) were incubated with TAMRA-labeled bioportides (5 µM) for 1 h at 37 °C and 5% CO2 atmosphere. Representative images from 3 independent experiments are represented. DIC: differential interference contrast. Scale bar: 150 μm.

LnCaP cells = experiment: as above; type: cell-based, Human; conditions: TAMRA-labeled bioportide 5 µM, 1 h, 37 °C, 5% CO2, phenol red-free RPMI-1640, live-cell fluorescence imaging (EVOS M5000), 3 independent experiments
Description: as §1, §2

[1] = phase II clinical trial; cited from earlier work
From the text: Despite the apparent anticancer role of CPT1, by reducing the availability of fatty acids, excess CPT1 seems to support PCa cell proliferation by an ROS-mediated stress phenotype. Moreover, a CPT1 knockout was associated with inhibition of PCa cell invasion, becoming an important therapeutic target for PCa. In this context, different compounds have been produced to target this protein [52]. […] Alternatively, ...

cancer cells = conditions: cited from earlier work; for cancer cell apoptosis: cancer cells
Description: Targeting protein phosphorylation has long been explored as a strategy for cancer treatment. For instance, several kinase inhibitors have been approved by the FDA as anticancer therapies. In the context of phosphatases, targeting the PP1 active site was one of the earliest proposed approaches for anticancer therapeutic development. The potential therapeutic effect of PP1 inhibitors tautomycin and calyculin A was evaluated in cancer cells.

[2] = system: several types of cells, including different tumor cell lines; conditions: cited from earlier work

## CC[C@H](C)[C@H](NC(=O)[C@H](Cc1ccccc1)NC(=O)[C@H](CC(=O)O)NC(=O)[C@@H](NC(=O)[C@@H](N)C(C)C)C(C)C)C(=O)N[C@@H](CCCCN)C(=O)N[C@@H](CCC(=O)O)C(=O)N[C@@H](CC(=O)O)C(=O)N[C@@H](CCCNC(=N)N)C(=O)N[C@@H](CCC(N)=O)C(=O)N[C@H](C(=O)N[C@@H](CCCCN)C(=O)N[C@H](C(=O)N[C@@H](Cc1c[nH]c2ccccc12)C(=O)N[C@@H](Cc1ccccc1)C(=O)N[C@@H](CCC(N)=O)C(=O)N[C@@H](CC(N)=O)C(=O)N[C@@H](CCCNC(=N)N)C(=O)N[C@@H](CCCNC(=N)N)C(=O)N[C@@H](CCSC)C(=O)N[C@@H](CCCCN)C(=O)N[C@@H](Cc1c[nH]c2ccccc12)C(=O)N[C@@H](CCCCN)C(=O)N[C@@H](CCCCN)C(N)=O)[C@@H](C)CC)[C@@H](C)CC [CAVPENET control] (H-VVDFIKEDRQIKIWFQNRRMKWKK-NH2)
PC-3 cells
  cellular internalization: demonstrated cellular internalization
LnCaP cells
  cellular internalization: demonstrated cellular internalization

## CC[C@H](C)[C@H](NC(=O)[C@H](CCCCN)NC(=O)[C@@H](NC(=O)[C@@H](N)C(C)C)C(C)C)C(=O)N[C@@H](CC(=O)O)C(=O)N[C@@H](Cc1ccccc1)C(=O)N[C@@H](CCC(=O)O)C(=O)N[C@@H](CC(=O)O)C(=O)N[C@@H](CCCNC(=N)N)C(=O)N[C@@H](CCC(N)=O)C(=O)N[C@H](C(=O)N[C@@H](CCCCN)C(=O)N[C@H](C(=O)N[C@@H](Cc1c[nH]c2ccccc12)C(=O)N[C@@H](Cc1ccccc1)C(=O)N[C@@H](CCC(N)=O)C(=O)N[C@@H](CC(N)=O)C(=O)N[C@@H](CCCNC(=N)N)C(=O)N[C@@H](CCCNC(=N)N)C(=O)N[C@@H](CCSC)C(=O)N[C@@H](CCCCN)C(=O)N[C@@H](Cc1c[nH]c2ccccc12)C(=O)N[C@@H](CCCCN)C(=O)N[C@@H](CCCCN)C(N)=O)[C@@H](C)CC)[C@@H](C)CC [CAVPENET] (H-VVKIDFEDRQIKIWFQNRRMKWKK-NH2)
PC-3 cells
  cellular internalization: demonstrated cellular internalization
LnCaP cells
  cellular internalization: demonstrated cellular internalization

## CCOC(=O)[C@@]1(CCCCCCOc2ccc(Cl)cc2)CO1 [Etomoxir]
[1]
  hepatotoxicity: hepatotoxicity hampered definitive testing

## COC[C@@H]([C@H](O)[C@H](O)C(=O)NCC[C@H](C)c1nc(/C=C/C[C@@H]2O[C@]3(C[C@@H](O)[C@@H]2C)O[C@H]([C@H](C[C@H](O)[C@H](C)[C@H](O)[C@H](C)/C=C(C)/C(C)=C/C=C/C(C)=C\C#N)OC)[C@H](OP(=O)(O)O)C3(C)C)co1)N(C)C [calyculin A]
Cancer cells
  cancer cell apoptosis: effectiveness in causing cancer cell apoptosis
  toxic effects: significant toxic effects

## CO[C@H]([C@H](O)CC(=O)[C@@H](C)[C@@H](O)CC[C@@H](C)[C@@H]1O[C@]2(CC[C@@H](C)[C@H](CC[C@H](C)C(C)=O)O2)CC[C@@H]1C)[C@H](OC(=O)C[C@@H](O)C1=C(C)C(=O)OC1=O)C(C)C [tautomycin]
Cancer cells
  cancer cell apoptosis: effectiveness in causing cancer cell apoptosis
  toxic effects: significant toxic effects

## RQIKIWFQNRRMKWKK [Penetratin]
[2]
  toxic effects in cells: absence of toxic effects
